In US12421208B2, “Chemical compounds” (ASTRAZENECA AB, priority 2020, dated 2025):

What was measured:
PARP6 = molecular target: T1, PARP6 (Homo sapiens, UniProt Q2NL67); experiment: PARP fluorescence anisotropy binding assay, PARP6; details: recombinant full length GST tagged PARP6
T1 construct: Recombinant full length GST tagged PARP6 protein; GST
Description: (§1) PARP Fluorescence Anisotropy Binding Assays
(§2) Recombinant full length GST tagged PARP6 protein was diluted to 160 nM with 50 mM Tris pH 8, 0.001% Triton X100, 10 mM MgCl2, 150 mM NaCl and incubated for four hours with an equivalent volume of 6 nM fluorescent probe diluted with 50 mM Tris pH 8, 0.001% Triton X100, 10 mM MgCl2, 150 mM NaCl. The final DMSO concentration of the probe was kept below 1% (v/v).
Fluorescence anisotropy of the probe when bound to the proteins was measured using a BMG Pherastar FSX© in the presence of test compounds or solvent control and the effect on anisotropy determined. % inhibition values for different test compound concentrations were calculated and fitted to a four parameter logistic plot in order to determine the IC50 value. Where necessary, the compound Ki can be determined from the IC50 value using a Munson Rodbard equation defined in Anal Biochem. 1980 Sep. 1; 107(1):220-39 and is based on the known KD of the probe binding to the relevant PARP protein

PARP5a = PARP5a (Homo sapiens, UniProt O95271); experiment: PARP fluorescence anisotropy binding assay, PARP5a binding domain; details: recombinant PARP5a binding domain
PARP5a, sequence (O95271 1112-1317): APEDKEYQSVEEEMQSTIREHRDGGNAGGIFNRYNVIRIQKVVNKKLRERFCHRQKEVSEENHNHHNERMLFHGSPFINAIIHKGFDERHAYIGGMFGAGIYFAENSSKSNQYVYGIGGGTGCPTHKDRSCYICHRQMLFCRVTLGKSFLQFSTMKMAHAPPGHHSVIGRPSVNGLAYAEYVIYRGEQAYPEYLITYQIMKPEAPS
Source text: as §1

hERG = hERG (Homo sapiens, UniProt Q12809); experiment: hERG inhibition
hERG, sequence (Q12809 whole entry): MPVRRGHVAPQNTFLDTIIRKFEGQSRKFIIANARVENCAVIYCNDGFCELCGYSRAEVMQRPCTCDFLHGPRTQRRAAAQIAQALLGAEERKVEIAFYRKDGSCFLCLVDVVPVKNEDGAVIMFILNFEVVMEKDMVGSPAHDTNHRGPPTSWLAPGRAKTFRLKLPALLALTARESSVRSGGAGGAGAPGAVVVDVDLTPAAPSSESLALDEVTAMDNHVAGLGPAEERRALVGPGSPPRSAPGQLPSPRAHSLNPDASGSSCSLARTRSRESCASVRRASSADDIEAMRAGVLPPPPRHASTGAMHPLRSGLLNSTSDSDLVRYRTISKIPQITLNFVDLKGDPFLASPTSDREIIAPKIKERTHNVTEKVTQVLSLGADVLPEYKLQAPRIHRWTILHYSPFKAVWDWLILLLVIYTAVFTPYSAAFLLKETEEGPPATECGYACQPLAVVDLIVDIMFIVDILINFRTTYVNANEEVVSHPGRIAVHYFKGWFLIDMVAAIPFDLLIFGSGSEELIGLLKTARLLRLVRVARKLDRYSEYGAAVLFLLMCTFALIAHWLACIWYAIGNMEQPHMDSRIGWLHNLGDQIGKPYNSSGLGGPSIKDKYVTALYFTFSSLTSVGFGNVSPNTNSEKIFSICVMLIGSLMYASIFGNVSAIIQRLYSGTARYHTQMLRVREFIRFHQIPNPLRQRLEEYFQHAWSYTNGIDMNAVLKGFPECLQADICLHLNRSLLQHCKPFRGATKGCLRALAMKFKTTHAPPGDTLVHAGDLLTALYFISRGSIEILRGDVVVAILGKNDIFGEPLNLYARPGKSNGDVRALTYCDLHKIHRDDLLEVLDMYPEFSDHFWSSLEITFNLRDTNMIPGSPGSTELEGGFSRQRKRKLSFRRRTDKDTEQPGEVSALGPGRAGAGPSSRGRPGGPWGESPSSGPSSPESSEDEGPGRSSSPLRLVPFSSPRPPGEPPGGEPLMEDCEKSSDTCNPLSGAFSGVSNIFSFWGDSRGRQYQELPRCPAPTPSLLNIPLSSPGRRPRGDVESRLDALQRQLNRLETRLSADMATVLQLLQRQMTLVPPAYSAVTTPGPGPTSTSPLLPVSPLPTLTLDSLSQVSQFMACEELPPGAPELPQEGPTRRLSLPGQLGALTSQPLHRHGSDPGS
Source text: It is well known that blockade of the cardiac ion channel coded by human ether-n-gogo-related gene (hERG) is a risk factor in drug discovery and development. Blockage of hERG can cause safety problems such as cardiac arrhythmia. Advantageously, the compounds of Formula I have low hERG activity.

PARP1 = molecular target: T2, PARP1 (Homo sapiens, UniProt P09874); experiment: PARP fluorescence anisotropy binding assay, PARP1; details: recombinant full length 6HIS tagged PARP1
T2 construct: Recombinant full length 6HIS tagged PARP1 protein; 6HIS
T2 sequence (P09874 whole entry): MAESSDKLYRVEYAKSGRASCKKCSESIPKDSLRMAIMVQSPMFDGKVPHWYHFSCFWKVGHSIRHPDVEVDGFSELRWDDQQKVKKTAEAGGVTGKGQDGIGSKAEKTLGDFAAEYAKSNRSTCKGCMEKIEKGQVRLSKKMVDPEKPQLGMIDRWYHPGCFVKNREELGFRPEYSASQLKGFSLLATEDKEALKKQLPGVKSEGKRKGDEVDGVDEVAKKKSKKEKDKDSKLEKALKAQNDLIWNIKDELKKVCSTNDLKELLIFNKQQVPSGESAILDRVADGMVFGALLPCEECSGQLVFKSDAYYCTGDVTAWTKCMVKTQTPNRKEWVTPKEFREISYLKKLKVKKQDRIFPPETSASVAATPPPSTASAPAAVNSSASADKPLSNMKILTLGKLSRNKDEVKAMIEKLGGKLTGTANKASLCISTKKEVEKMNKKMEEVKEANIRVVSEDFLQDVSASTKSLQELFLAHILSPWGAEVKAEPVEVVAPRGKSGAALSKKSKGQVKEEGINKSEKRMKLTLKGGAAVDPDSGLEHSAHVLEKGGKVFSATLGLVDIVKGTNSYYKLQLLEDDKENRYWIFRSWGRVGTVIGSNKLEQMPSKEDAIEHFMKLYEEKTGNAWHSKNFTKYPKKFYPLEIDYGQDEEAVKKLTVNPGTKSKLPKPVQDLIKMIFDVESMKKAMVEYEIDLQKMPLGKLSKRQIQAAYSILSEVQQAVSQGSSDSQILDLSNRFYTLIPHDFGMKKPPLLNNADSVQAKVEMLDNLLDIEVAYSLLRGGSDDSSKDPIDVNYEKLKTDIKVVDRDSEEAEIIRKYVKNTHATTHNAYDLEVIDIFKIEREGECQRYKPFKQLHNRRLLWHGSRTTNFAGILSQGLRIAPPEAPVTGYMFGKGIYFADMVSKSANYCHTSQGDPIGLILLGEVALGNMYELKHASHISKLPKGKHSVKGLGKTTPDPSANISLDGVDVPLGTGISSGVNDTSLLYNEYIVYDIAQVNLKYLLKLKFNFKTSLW
Description: Recombinant full length 6HIS tagged PARP1 protein was diluted to 6 nM with 50 mM Tris pH 8, 0.001% Triton X100, 10 mM MgCl2, 150 mM NaCl and incubated for four hours with an equivalent volume of 2 nM fluorescent probe diluted with 50 mM Tris pH 8, 0.001% Triton X100, 10 mM MgCl2, 150 mM NaCl. The final DMSO concentration of the probe was kept below 1% (v/v).

MDR1 and BCRP = experiment: In vitro human transporter efflux (MDCK-MDR1-BCRP); format: in vitro ADME; details: human, pH 7.4, Papp(B to A)/Papp(A to B), 1 or 0.1 μM, 90-min incubation
Description: In Vitro Human Transporter Efflux
(§5) MDCKII cells expressing MDR1 and BCRP were seeded onto polyethylene membranes in 96-well Transwell insert systems at a density to form a confluent cell monolayer. […] The final percent volume of the organic solvent was less than 1%. Permeation of the test compounds from A to B direction and from B to A direction was determined over a 90-min incubation at 37° C. and 5% CO2 with a relative humidity of 95%. At the end of the incubation, samples from the apical and basolateral side were taken and then precipitated with cold acetonitrile containing internal standard. After centrifugation at 4000 rpm, the supernatant was diluted with 0.1% formic acid aqueous solution and quantified by LC-MS/MS. The integrity of the cell monolayers was confirmed by using the marker Lucifer yellow.
(§6) (1) The efflux ratio was calculated using the following equation Efflux ratio=Papp(B to A)/Papp(A to B)
(§7) (2) where dCr/dt is the cumulative concentration of the compound in the receiver chamber as a function of time (in μM/s); Vr is the solution volume in the receiver chamber (0.1 ml on the apical side and 0.3 ml on the basolateral side); A is the surface area for the transport, that is, 0.11 cm2 for the area of the monolayer; and CO is the initial concentration in the donor chamber (in μM).

PARP3 = molecular target: T3, PARP3 (Homo sapiens, UniProt Q9Y6F1); experiment: PARP fluorescence anisotropy binding assay, PARP3; details: recombinant full length PARP3
T3 construct: Recombinant full length PARP3 protein
T3 sequence (Q9Y6F1 1-533): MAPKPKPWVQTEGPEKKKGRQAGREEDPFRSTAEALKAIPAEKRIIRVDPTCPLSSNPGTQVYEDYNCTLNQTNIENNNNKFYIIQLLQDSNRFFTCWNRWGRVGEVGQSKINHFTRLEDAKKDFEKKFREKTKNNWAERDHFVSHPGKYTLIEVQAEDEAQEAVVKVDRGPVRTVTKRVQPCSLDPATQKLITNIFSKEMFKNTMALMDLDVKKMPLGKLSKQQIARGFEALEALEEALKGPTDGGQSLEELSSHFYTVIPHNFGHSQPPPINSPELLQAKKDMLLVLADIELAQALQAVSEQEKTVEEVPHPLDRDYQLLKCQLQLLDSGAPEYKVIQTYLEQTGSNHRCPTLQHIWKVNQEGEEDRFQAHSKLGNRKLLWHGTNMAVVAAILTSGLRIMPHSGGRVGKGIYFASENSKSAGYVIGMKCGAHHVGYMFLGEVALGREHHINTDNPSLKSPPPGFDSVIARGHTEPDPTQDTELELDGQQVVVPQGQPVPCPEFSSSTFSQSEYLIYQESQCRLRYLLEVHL
Source text: as §1

BRCA2 (−/−) DLD1 cells = experiment: PARP proliferation assay (7 day compound dosing), BRCA2 (−/−) DLD1; format: cell-based; details: BRCA2 −/− DLD-1 cells, 7 day dosing; read-out: BRCA2 −/− DLD-1 prolif. 7 d IC50
Description: (§3) PARP Proliferation Assay (7 Day Compound Dosing)
(§4) DLD1 and BRCA2 (−/−) DLD1 cells were harvested to a density of 5000 cells/ml and 2.5E4 cells/ml respectively in complete media, 40 μL/well seeded into 384-well plates (Greiner, Kremsmunster, Austria; 781090) using a Multidrop Combi then incubated at 37° C., 5% CO2 overnight. Next day (Day 1) using a Multidrop Combi add sytoxgreen (5 ul, 2 uM) and saponin (10 ul, 0.25% stock) to a day 0 plate, seal the plate using a black adhesive lid and incubate for >3 h at rt. Cells were imaged using Cell Insight (Thermo Fisher) fitted with a 4× objective. Test compounds are added using an Echo 555 and placed in incubator maintained at 37° C., 5% CO2 and incubated for 7 days. On Day 8 add sytox green (5 ul, 2 uM) and then saponin (10 ul, 0.25% stock) to plates, seal the plate using a black adhesive lid and incubate for >3 h at rt. Read all cells on the Cell Insight with 4× Objective. The rate of proliferation is determined in Genedata by assessing the total cell number output from the Cell Insight for Day 0 and Day 8 plates.

DLD1 cells = experiment: PARP proliferation assay (7 day compound dosing), WT DLD1; format: cell-based; details: Homo sapiens, 168 h; WT DLD-1 cells, 7 day dosing; read-out: WT DLD-1 prolif. 7 d IC50
Description: as §3, §4

[1] = system: MDCKII cells expressing MDR1 and BCRP; experiment: In vitro human transporter efflux (MDCK-MDR1-BCRP); format: in vitro ADME; details: Papp(B to A)/Papp(A to B), 1 or 0.1 μM, 90-min incubation
Description: In Vitro Human Transporter Efflux
as §5, §6, §7

PARP2 = molecular target: T4, PARP2 (Homo sapiens, UniProt Q9UGN5); experiment: PARP fluorescence anisotropy binding assay, PARP2; details: recombinant full length PARP2
T4 construct: Recombinant full length PARP2 protein
T4 sequence (Q9UGN5 whole entry): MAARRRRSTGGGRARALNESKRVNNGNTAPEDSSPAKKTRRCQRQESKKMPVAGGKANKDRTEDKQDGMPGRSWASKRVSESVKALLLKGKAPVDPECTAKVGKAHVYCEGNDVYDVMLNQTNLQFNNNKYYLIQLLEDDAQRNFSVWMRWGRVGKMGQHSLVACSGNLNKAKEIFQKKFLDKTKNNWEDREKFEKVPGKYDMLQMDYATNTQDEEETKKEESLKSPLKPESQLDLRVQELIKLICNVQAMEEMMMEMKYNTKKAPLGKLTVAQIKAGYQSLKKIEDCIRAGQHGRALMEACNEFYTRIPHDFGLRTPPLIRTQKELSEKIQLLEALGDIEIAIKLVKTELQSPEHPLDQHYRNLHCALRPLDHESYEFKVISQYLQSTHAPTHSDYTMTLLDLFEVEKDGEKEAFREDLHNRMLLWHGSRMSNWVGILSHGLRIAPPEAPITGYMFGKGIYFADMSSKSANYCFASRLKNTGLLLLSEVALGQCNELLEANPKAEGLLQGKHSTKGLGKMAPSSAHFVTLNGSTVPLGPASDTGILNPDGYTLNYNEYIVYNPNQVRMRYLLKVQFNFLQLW
Description: as §1
as §2, with “PARP2” for “GST tagged PARP6”, “6” for “160”, “2” for “6”
Fluorescence anisotropy of the probe when bound to the proteins was measured using a BMG Pherastar FSX© in the presence of test compounds or solvent control and the effect on anisotropy determined. % inhibition values for different test compound concentrations were calculated and fitted to a four parameter logistic plot in order to determine the IC50 value.

T1 sequence (Q2NL67 whole entry): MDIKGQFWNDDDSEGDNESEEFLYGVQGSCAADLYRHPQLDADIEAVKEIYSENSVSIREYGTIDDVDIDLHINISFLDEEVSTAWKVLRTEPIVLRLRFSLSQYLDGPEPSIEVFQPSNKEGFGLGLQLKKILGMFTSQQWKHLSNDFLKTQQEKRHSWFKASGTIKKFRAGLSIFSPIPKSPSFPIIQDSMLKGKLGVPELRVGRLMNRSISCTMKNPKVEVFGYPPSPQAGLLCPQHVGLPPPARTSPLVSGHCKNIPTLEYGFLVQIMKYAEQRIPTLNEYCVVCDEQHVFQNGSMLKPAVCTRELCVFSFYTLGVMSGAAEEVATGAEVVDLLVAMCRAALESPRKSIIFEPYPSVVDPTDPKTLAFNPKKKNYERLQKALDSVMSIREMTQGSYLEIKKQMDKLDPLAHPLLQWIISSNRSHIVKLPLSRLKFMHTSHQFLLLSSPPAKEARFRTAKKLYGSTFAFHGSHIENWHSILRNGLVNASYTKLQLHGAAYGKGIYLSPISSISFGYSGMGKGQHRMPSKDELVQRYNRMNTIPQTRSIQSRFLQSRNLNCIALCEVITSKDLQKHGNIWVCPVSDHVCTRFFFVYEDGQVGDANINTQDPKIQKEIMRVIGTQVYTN

Compound | IC50 (PARP6) | IC50 (PARP5a) | IC50 (hERG) | IC50 (PARP1) | efflux ratio at 90 min (MDR1 and BCRP) | IC50 (PARP3) | IC50 (BRCA2 (−/−) DLD1 cells) | IC50 (DLD1 cells) | MDCK-MDR1-BCRP Efflux Ratio [1] | IC50 (PARP2)
CNC(=O)c1ccc(N2CCN(Cc3ccc4nc(C(C)F)c(=O)[nH]c4c3F)CC2)c(F)n1 (single isomer, unassigned) [Example 12, 6-fluoro-5-[4-[[5-fluoro-2-[(1S OR 1R)-1-fluoroethyl]-3-oxo-4H-quinoxalin-6-yl]methyl]piperazin-1-yl]-N-methyl-pyridine-2-carboxamide] | > 100 µM | > 100 µM | > 40 µM | 0.015 µM | 4.2 | 85 µM | 0.008 µM |  |  | 
CNC(=O)c1ccc(N2CCN(Cc3ccc4nc(C(C)F)c(=O)[nH]c4c3F)CC2)c(F)n1 (single isomer, unassigned) [Example 13, 6-fluoro-5-[4-[[5-fluoro-2-[(1S OR 1R)-1-fluoroethyl]-3-oxo-4H-quinoxalin-6-yl]methyl]piperazin-1-yl]-N-methyl-pyridine-2-carboxamide] | > 100 µM | > 100 µM | > 40 µM | 0.009 µM |  | 62 µM | 0.019 µM | 22 µM | 3.0 | > 100 µM
